Laboratory results taken from patent publication US11419916B2, “Methods and compositions for inducing differentiation of human brown adipocyte progenitors” (Energesis Pharmaceuticals, Inc., priority 2014, dated 2022).
Structures can show the parent of a compound that is named as a salt.

Assays:
[1] = system: CD31-cells (brown adipocyte progenitors); assay: Quantification of UCP1 protein by immunohistochemistry (IHC); format: cell-based, human; details: total intensity of UCP1 signal normalized to cell number
Procedure: Differentiation of brown adipocyte progenitors into brown adipocytes can be detected through quantification of UCP1 protein by immunohistochemistry (IHC).
Culturing and differentiation of CD31-cells into brown adipocytes were performed using adipogenic differentiation medium lacking (Minimal Differentiation Medium, MDM) or containing 1 μM rosiglitazone (Reference Differentiation Medium, RDM). After 15 days of differentiation cells were fixed with 4% Paraformaldehyde PBS pH 7.4, and incubated with a UCP1 antibody (Abcam ab23841) and Alexafluor 488 goat anti-rabbit antibody to quantify relative UCP1 levels (green) according to standard protocols. Prior to fixation of cells, nuclei were labeled with 5 μM DAPI (blue) for 10 minutes. Each treatment condition was evaluated in triplicate in a 96-well plate corresponding to approximately 360-480 cells for each data point in total. The InCell 1000 Developer Toolbox software was used to develop an automated cell detection script to measure UCP1 signal intensity, using the nuclei and cytoplasm detection algorithms. As a readout, total intensity of UCP1 signal within the cell was used, normalized to cell number.

[2] = system: CD31-cells (BAT progenitor cells isolated from human skeletal muscle); assay: Quantification of UCP1 and PPARγ2 mRNA (normalized to cyclophilin A) by multiplexed TaqMan real-time PCR to quantify differentiation into brown adipocytes; format: cell-based
Excerpt: A robust method, previously disclosed in WO2013071063 and incorporated herein by reference, was used for detection of CD31-cell differentiation into brown adipocytes by simultaneously quantifying mRNA species corresponding to the brown adipocyte marker UCP1, the adipocyte marker PPARγ2, and the “housekeeping” gene cyclophilin A which was used as the internal control.
This method permits analysis of a large number of samples to identify agents that enhance the differentiation of CD31-cells into brown adipocytes. When differentiated into brown adipocytes CD31-cells express much higher levels of UCP1 and PPARγ2 mRNA for a given level of cyclophilin A. UCP1 and PPARγ2 mRNA levels normalized to cyclophilin A mRNA levels give an indication of the level of differentiation of the CD31-cells into brown adipocytes, independent of the total number of cells in the sample.
Quantification of UCP1, PPARγ2 and cyclophilin A mRNA by multiplexed TaqMan real-time PCR was thus used to quantify differentiation of the CD31-cells into brown adipocytes.
Cells were seeded at 10,000 per cm^2 in 0.2% gelatin coated plates (48-well tissue culture, Chemglass #CLS-3500-048), cultured until confluency (2-4 days) at 37° C. in Endothelial cell growth medium-2 (EGM2) (BulletKit growth medium, Lonza #CC-3162) and until differentiation (10-16 more days). After 2 or 3 days in EGM2 medium the cells were induced to differentiate by replacing the medium with an adipogenic medium, which is a modification of the adipogenic medium described by Rodriguez et al. and may or may not contain a differentiation inducing agent (e.g., PPARγ agonist). […] If rosiglitazone is used as a differentiation-inducing agent, it can be supplied at 1 μM or any other concentration sufficient to induce differentiation of BAT progenitor cells into adipocytes.
Total RNA was prepared from cells using PureLink RNA Isolation Kit (Invitrogen #12183-016) First strand cDNA were synthesized using the High Capacity cDNA Reverse Transcription kit (Applied Biosystems, Foster City, Calif.) and random primers.
Quantitative real-time PCR was performed using an Applied Biosystems StepOnePlus™ instrument, TaqMan Gene Expression Master Mix (Applied Biosystems #4369016), and custom TaqMan gene expression probes and primers for human uncoupling protein-1 “UCP1” (GenBank NM_021833) and for human peptidylprolyl isomerase A “cyclophilin A” (GenBank NM_021130).
Cyclophilin A was used as a control to account for any variations due to the efficiency of reverse transcription. Arbitrary units were determined by normalizing target mRNA levels to cyclophilin A mRNA levels (based on Cts).

Molecule	UCP1 protein signal (IHC), differentiation of brown adipocyte progenitors into brown adipocytes [1]	differentiation of BAT progenitor cells into brown adipocytes and/or expression of UCP1, PPARγ2 mRNA [2]
O=C(CCCN1CCC2(CC1)C(=O)NCN2c1ccccc1)c1ccc(F)cc1 [Spiperone]	identified using this technique	
NC(N)=Nc1nc(CSCCC(N)=NS(N)(=O)=O)cs1 [Famotidine]	identified using this technique	
COC(=O)[C@H]1[C@H]2C[C@@H]3c4[nH]c5cc(OC)ccc5c4CCN3C[C@H]2C[C@@H](OC(=O)c2cc(OC)c(OC)c(OC)c2)[C@@H]1OC [Reserpine]	identified using this technique	
interleukin-6 (IL-6): Interleukin-6, UniProt P05231		promote the differentiation of BAT progenitor cells into brown adipocytes and/or induce the expression of UCP1
CC1(C)CC[C@]2(C(=O)O)CC[C@]3(C)C(=CC[C@@H]4[C@@]5(C)CC[C@H](O)C(C)(C)[C@@H]5CC[C@]43C)[C@@H]2C1 [oleanolic acid]		promote the differentiation of BAT progenitor cells into brown adipocytes and/or induce the expression of UCP1
CCSc1ccc2c(c1)N(CCCN1CCN(C)CC1)c1ccccc1S2 [Thiethylperazine]	identified using this technique	
COC(=O)N(C)c1c(N)nc(-c2nn(Cc3ccccc3F)c3ncccc23)nc1N [riociguat]		promote the differentiation of BAT progenitor cells into brown adipocytes and/or induce the expression of UCP1
orexin B: orexin B		promote the differentiation of BAT progenitor cells into brown adipocytes and/or induce the expression of UCP1
COc1cc2c(c(OC)c1OC)-c1ccc(OC)c(=O)cc1[C@@H](NC(C)=O)CC2 [Colchicine]	identified using this technique	
BNP: b-type natriuretic peptide		promote the differentiation of BAT progenitor cells into brown adipocytes and/or induce the expression of UCP1
CN(C)C(=N)N=C(N)N [Metformin]	identified using this technique	
bombesin		promote the differentiation of BAT progenitor cells into brown adipocytes and/or induce the expression of UCP1
CCCCC[C@H](O)/C=C/[C@@H]1[C@@H](C/C=C\CCCC(=O)O)[C@H](O)C[C@H]1O [9β,11α-prostaglandin F2]		promote the differentiation of BAT progenitor cells into brown adipocytes and/or induce the expression of UCP1
O=C1NC(c2cccc([N+](=O)[O-])c2)=CCN1c1ccccc1O [icilin]		promote the differentiation of BAT progenitor cells into brown adipocytes and/or induce the expression of UCP1
COc1ccc(C2CNC(=O)C2)cc1OC1CCCC1 (stereo not drawn) [rolipram]		promote the differentiation of BAT progenitor cells into brown adipocytes and/or induce the expression of UCP1
N=C(N)NC(=O)Cc1c(Cl)cccc1Cl [Guanfacine hydrochloride]	identified using this technique	
PACAP Propeptide of 55 aa (aa 25-79): peptide derived from the Pituitary adenylate cyclase-activating polypeptide (PACAP, ADCYAP1, UniProt P18509) gene (SPAAAGLRFPGIRPEEEAYGEDGNPLPDFDGSEPPGAGSPASAPRAAAAWYRPAG; UniProt P18509 25-79, looked up, fragment)		promote the differentiation of BAT progenitor cells into brown adipocytes and/or induce the expression of UCP1
CN/C(=N\c1ccc(C2=NNC(=O)CC2C)cc1)NC#N (stereo not drawn) [siguazodan]		promote the differentiation of BAT progenitor cells into brown adipocytes and/or induce the expression of UCP1
CC1CCC(C(C)C)C(O)C1 (stereo not drawn) [menthol]		promote the differentiation of BAT progenitor cells into brown adipocytes and/or induce the expression of UCP1
FGF10: fibroblast growth factor-10, keratinocyte growth factor-2 (protein, UniProt O15520 38-208, looked up) Fibroblast growth factor 10: QALGQDMVSPEATNSSSSSFSSPSSAGRHVRSYNHLQGDVRWRKLFSFTKYFLKIEKNGKVSGTKKENCPYSILEITSVEIGVVAVKAINSNYYLAMNKKGKLYGSKEFNNDCKLKERIEENGYNTYASFNWQHNGRQMYVALNGKGAPRRGQKTRRKNTSAHFLPMVVHS		promote the differentiation of BAT progenitor cells into brown adipocytes and/or induce the expression of UCP1
CNTF: ciliary neurotrophic factor (protein, UniProt P26441 1-200, looked up) Ciliary neurotrophic factor: MAFTEHSPLTPHRRDLCSRSIWLARKIRSDLTALTESYVKHQGLNKNINLDSADGMPVASTDQWSELTEAERLQENLQAYRTFHVLLARLLEDQQVHFTPTEGDFHQAIHTLLLQVAAFAYQIEELMILLEYKIPRNEADGMPINVGDGGLFEKKLWGLKVLQELSQWTVRSIHDLRFISSHQTGIPARGSHYIANNKKM		promote the differentiation of BAT progenitor cells into brown adipocytes and/or induce the expression of UCP1
BDNF: brain-derived neurotrophic factor (protein, UniProt P23560 19-247, looked up) Neurotrophic factor BDNF …: APMKEANIRGQGGLAYPGVRTHGTLESVNGPKAGSRGLTSLADTFEHVIEELLDEDQKVRPNEENNKDADLYTSRVMLSSQVPLEPPLLFLLEEYKNYLDAANMSMRVRRHSDPARRGELSVCDSISEWVTAADKKTAVDMSGGTVTVLEKVPVSKGQLKQYFYETKCNPMGYTKEGCRGIDKRHWNSQCRTTQSYVRALTMDSKKRIGWRFIRIDTSCVCTLTIKRGR		promote the differentiation of BAT progenitor cells into brown adipocytes and/or induce the expression of UCP1
FGF7: fibroblast growth factor-7, keratinocyte growth factor (protein, UniProt P21781 32-194, looked up) Fibroblast growth factor 7: CNDMTPEQMATNVNCSSPERHTRSYDYMEGGDIRVRRLFCRTQWYLRIDKRGKVKGTQEMKNNYNIMEIRTVAVGIVAIKGVESEFYLAMNKEGKLYAKKECNEDCNFKELILENHYNTYASAKWTHNGGEMFVALNQKGIPVRGKKTKKEQKTAHFLPMAIT		promote the differentiation of BAT progenitor cells into brown adipocytes and/or induce the expression of UCP1
FGF13: fibroblast growth factor-13 (protein, UniProt Q92913 1-245, looked up) Fibroblast growth factor 13: MAAAIASSLIRQKRQAREREKSNACKCVSSPSKGKTSCDKNKLNVFSRVKLFGSKKRRRRRPEPQLKGIVTKLYSRQGYHLQLQADGTIDGTKDEDSTYTLFNLIPVGLRVVAIQGVQTKLYLAMNSEGYLYTSELFTPECKFKESVFENYYVTYSSMIYRQQQSGRGWYLGLNKEGEIMKGNHVKKNKPAAHFLPKPLKVAMYKEPSLHDLTEFSRSGSGTPTKSRSVSGVLNGGKSMSHNEST		promote the differentiation of BAT progenitor cells into brown adipocytes and/or induce the expression of UCP1
